Results reported in US11576979B2, “Pyrrolobenzodiazepine prodrugs and antibody conjugates thereof” (GENENTECH, INC., priority 2016, dated 2023).
pEC50, pIC50: −log10 of the molar value. Read-outs that look alike come from different tables or passages of the source.

Experiments:
HCC1395 = assay: CELLTITER GLO cell proliferation assay (Example 6); assay type: cell-based; settings: Homo sapiens, Table 4, read-out: IC50 potency HCC1395
Description: (§1) The toxicity of PBD monomer disulfide prodrugs and diaphorase prodrugs were evaluated against KPL-4, WSU-DLCL2, HCT-116, HCC1395 and Jurkat cell cultures. […] KPL-4 cells further have a high expression of DTD on the order of about 839 nRPKM (where nRPKM refers to normalized reads per Kb of transcript length per million mapped read).
(§2) Potency of the disulfide and DT-diaphorase prodrugs was measured by a cell proliferation assay employing the following protocol (CELLTITER GLO™ Luminescent Cell Viability Assay, Promega Corp.). First, an aliquot of 40 ul of cell culture containing about 8000 cells of WSU-DLCL2 cells (low NQO1 gene and GSH level), 4000 cells of KPL-4 (high NQO1 gene and GSH level), HCT-116 cells, HCC1395 cells or Jurkat cells in RPMI-1640 culture medium (supplemented with 10% fetal bovine serum, 2 mM glutamine, 50 uM cystine, and 0.015 g/L L-methionine) was deposited in each well of a 384-well flat clear bottom white polystyrene tissue culture-treated microplates (Corning, N.Y.). Second, control wells were prepared containing medium with and without cells. Third, compounds with and without disulfide or DT-diaphorase prodrugs (n=3) were added to the experimental wells using ECHO acoustic liquid handling technology (Labcyte Inc, Sunnyvale, Calif.) to create a 10-point dose-response curve in triplicate with 1:3× serial dilution. Fourth, cells were cultured in a humidified incubator set at 37° C. and maintaining an atmosphere of 5% CO2. Fifth, the plates were equilibrated to room temperature for approximately 30 minutes. Sixth, a volume of CELLTITER GLO™ Reagent equal to the volume of cell culture medium present in each well was added. Seventh, the contents were mixed for 10 minutes on an orbital shaker in the dark to induce cell lysis. Eighth, the plate was incubated at room temperature for 30 minutes to stabilize the luminescence signal. Ninth, luminescence was recorded and reported in graphs as % activity where RLU (relative luminescence units) was normalized to controls (no compound control minus no cell control). Tenth, data was plotted as individual points for each replicate (n=3) for each antibody as the mean of luminescence for each set of replicates, with standard deviation error bars.

HCT-116 = assay: CELLTITER GLO cell proliferation assay (Example 6); assay type: cell-based; settings: Homo sapiens
Description: as §1, §2

Jurkat = assay: CELLTITER GLO cell proliferation assay (Example 6); assay type: cell-based; settings: Homo sapiens, Table 4, read-out: IC50 potency Jurkat
Description: as §1, §2

DT Diaphorase [1] = molecular target: T1, DT Diaphorase (Homo sapiens, UniProt P15559); assay: DT diaphorase activated payload release (LC-MS MRM quant); assay type: biochemical; settings: after 90 minutes incubation
T1 construct: purchased Sigma D1315
T1 sequence (P15559 whole entry): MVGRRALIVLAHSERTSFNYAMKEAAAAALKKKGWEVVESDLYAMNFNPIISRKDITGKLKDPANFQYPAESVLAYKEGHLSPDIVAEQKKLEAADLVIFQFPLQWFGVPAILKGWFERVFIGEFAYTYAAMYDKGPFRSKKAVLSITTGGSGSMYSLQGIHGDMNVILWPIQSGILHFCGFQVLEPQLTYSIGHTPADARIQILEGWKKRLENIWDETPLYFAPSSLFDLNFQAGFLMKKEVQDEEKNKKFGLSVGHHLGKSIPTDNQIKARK
Description: In addition to the potency evaluation, the release of PBD dimer diaphorase prodrug 1 was evaluated. The release was measured to be 12% after 90 minutes incubation according to the following method. First, a master mix reaction was prepared containing 0.5 uM of the […], […] NADPH […]. Second, the reaction mix was incubated at room temperature for 5, 30, 90 min. […] Finally, data was analyzed using MultiQuant analysis software and standards were calculated using GraphPad Prism 6 linear regression fit.
An in vitro DT diaphorase activated drug release assay was used to measure NADPH depletion. DT diaphorase activated release of Norfloxacin and Payload (PBD) was measured by the in vitro depletion of NADPH. The assay method was modified from the absorbance measurement of NADPH at A340 (Osman et. al, Chemico-Biological Interactions 147 (2004) 99-108) due to the interference of compounds. The depletion of NADPH was measured by monitoring the decrease of fluorescence intensity of NADPH at 480 nm after being excited at 340 nM. […] The fluorescence intensity (RFU) of DNAPH was recorded on M1000 plate reader (Tecan) with excitation at 340 nm and emission at 480 nm. For data analysis, data was analyzed and plotted using Prism GraphPad 6. […]

KPL-4 Cell line = assay: Cell viability, DTD-activated quinone prodrugs (Example 15); assay type: cell-based
Description: (§3) The toxicity of PBD dimer diaphorase prodrug 1, PBD monomer diaphorase prodrug 2, PBD dimer control 1 and PBD monomer control 1 were evaluated against KPL-4 and WSU cell lines for cell viability. The KPL-4 cell line is was a high DTD cell line characterized by NQO1 nRPKM of 839 and the WSU cell line was a low DTD cell line characterized by a NQO1 nRPKM of 1.36. The IC50 ratios are based on the prodrug IC50 value relative to the PBD dimer control.

WSU Cell line = assay: as above; assay type: cell-based
Description: as §3

KPL-4 = assay: CELLTITER GLO cell proliferation assay (Example 6); assay type: cell-based; settings: data in parenthesis = repeat evaluations
Description: as §1, §2

WSU-DLCL2 = assay: CELLTITER GLO cell proliferation assay (Example 6); assay type: cell-based; settings: data in parenthesis = repeat evaluations
Description: as §1, §2

[2] = tested on: MDA-MB-453 tumor cell line; assay: in vitro tumor cell killing assay, 3 days (Example 13); assay type: cell-based; settings: Homo sapiens, MDA-MB-453, 72 h
Description: The toxicity of various PBD monomer and dimer boronic acid prodrug compounds were evaluated for cell toxicity. In the in vitro tumor cell killing assay, the cells were added to each well of 96-well microtiter plates at 8,000 cells per well and were incubated overnight at 37° C. in a humidified atmosphere of 5% CO2. The cells were exposed to various concentration of the indicated prodrug, positive control and negative control compounds. Where silvestrol was evaluated, a 1:3 serial dilution was used. After incubation for 3 days, Cell titer-Glo reagent (Promega, Madison Wis.) was added to the wells at 100 μL per well followed by a 10-minute incubation at room temperature, and the luminescent signal was measured using a Packard/Perkin-Elmer TopCount.
The toxicity of PBD monomer boronic acid prodrug 1 was evaluated against MDA-MB-453 tumor cell line for cell viability. PBD monomer control 1 was used as a positive control and PBD monomer control 2 was used as a negative control. The toxicity study was repeated wherein the PBD prodrug and controls were administered in combination with silvestrol. FIG. 15C depicts a plot of MDA-MB-453 cell kill versus drug concentration in μM three days after exposure to: (i) a PBD monomer control; (ii) a PBD monomer control having a benzyl formate moiety at the N10 PBD position; and (iii) a PBD monomer boronic acid prodrug. […]

DT Diaphorase [3] = molecular target: T1, DT Diaphorase; assay: in vitro DT diaphorase activated drug release assay (NADPH depletion); assay type: biochemical; settings: in <5 min
Description: An in vitro DT diaphorase activated drug release assay was used to measure NADPH depletion. DT diaphorase activated release of Norfloxacin and Payload (PBD) was measured by the in vitro depletion of NADPH. The assay method was modified from the absorbance measurement of NADPH at A340 (Osman et. al, Chemico-Biological Interactions 147 (2004) 99-108) due to the interference of compounds. The depletion of NADPH was measured by monitoring the decrease of fluorescence intensity of NADPH at 480 nm after being excited at […]. […] Prior to assay, dilute the stock to 1 mM as the 5× working solution; (5) DT Diaphorase specific Inhibitor: prepare 40 mM stock of Dicumarol (Sigma, Cat #M1390-5G, MW=336.29) in 0.13 N NaOH, stored at 4° C. Dilute the stock to 250 uM as the 5× working solution; (6) Compounds: dilute the Norfloxacin and PBD conjugated compounds in assay buffer to 250 uM as the 5× working solution; and (7) 384 well black plate with clear bottom. For the assay procedure: (1) The reaction mix containing 0.5 uM DT-D, 50 uM compound, […] NADPH was set up in a 384 well plate at 50 ul/well. For the control with DT Diaphorase inhibitor, Dicumarol was added in the reaction mix at final 50 uM for each compound. Reaction mix containing NADPH and compound only was also added as the baseline controls. The DT Diaphorase was added in the last step; and (2) The reaction mixes were incubated at room temperature for 5, 30, 90 min. The fluorescence intensity (RFU) of DNAPH was recorded on M1000 plate reader (Tecan) with excitation at 340 nm and emission at 480 nm. For data analysis, data was analyzed and plotted using Prism GraphPad 6. The depletion of NADPH was calculated by the formula below at reaction time point at 90 min wherein: % NADPH depletion=[…].

C=C1C[C@H]2C=Nc3cc(OCCCCCOc4cc5c(cc4OC)C(=O)N4CC(=C)C[C@H]4C(O)N5C(=O)OCc4cc5c(n4C)C(=O)C=C(OC)C5=O)c(OC)cc3C(=O)N2C1 (stereo partly shown) [PBD dimer diaphorase prodrug 1]
pIC50 (HCC1395): 7.85 | pIC50 (HCT-116; HCT-116, Table 4, read-out: IC50 potency HCT-116): 7.67 | pIC50 (Jurkat): 8.69 | release (DT Diaphorase [1]): 12% | pIC50 (KPL-4 Cell line; KPL4, KPL-4 Cell line (high DTD), Table 10, read-out: IC50 Potency): 7.45 | pIC50 (WSU Cell line; WSU Cell line (low DTD), Table 10, read-out: IC50 Potency): 8.07

C=C1C[C@H]2C=Nc3cc(OCCCCCOc4cc5c(cc4OC)C(=O)N4CC(=C)C[C@H]4C(O)N5C(=O)OCc4ccc(NC(=O)OCc5cc6c(n5C)C(=O)C=C(OC)C6=O)cc4)c(OC)cc3C(=O)N2C1 (stereo partly shown) [PBD dimer diaphorase prodrug 2]
pIC50 (HCC1395): 8.01 | pIC50 (Jurkat): 8.90 | pIC50 (KPL-4; KPL4, Table 4, read-out: IC50 potency KPL-4): 8.00 | pIC50 (WSU-DLCL2; Homo sapiens, WSUDLCL2, Table 4, read-out: IC50 potency WSU-DLCL2): 9.10

C=C1C[C@H]2C(O)N(C(=O)OCc3ccc(B4OC(C)(C)C(C)(C)O4)cc3)c3cc(OC)c(OC)cc3C(=O)N2C1 (stereo partly shown) [PBD monomer boronic acid prodrug 1]
pEC50 [2]: 5.73

C=C1C[C@H]2C(O)N(C(=O)OCc3cc4c(n3C)C(=O)C=C(OC)C4=O)c3cc(OC)c(OC)cc3C(=O)N2C1 (stereo partly shown) [PBD monomer diaphorase prodrug 2]
pIC50 (HCT-116; HCT-116, read-out: IC50 potency HCT-116): 6.65 | pIC50 (KPL-4; KPL4, read-out: IC50 potency KPL-4, Table 4): 6.46 | pIC50 (KPL-4; read-out: IC50 potency KPL-4, Table 4): 6.45 | pIC50 (WSU-DLCL2; Homo sapiens, WSUDLCL2, read-out: IC50 potency WSU-DLCL2, Table 4): 6.24 | pIC50 (WSU-DLCL2; read-out: IC50 potency WSU-DLCL2, Table 4): 6.54 | IC50 (KPL-4 Cell line; KPL4, read-out: IC50 Potency (nM)): 344 nM | IC50 (WSU Cell line; read-out: IC50 Potency (nM)): 575 nM | NADPH Dep. (DT Diaphorase [3]): >90% in
